For data set [1] the following is noted: after intravenous administration; cited from earlier work.
Data set [2] has as its system bone marrow cells. Nature of the data set: bone marrow toxicity after intravenous doses. Type of data set: in vivo. Particulars: single and repeated intravenous doses.
For data set [3] the following is noted: man.
Data set [4] deals with primary human keratinocytes.
The conditions of data set [5]: oral administration, rhesus monkeys.
Data set [6] has as its system actinic keratosis. Nature of the data set: oral Fosfluridine Tidoxil in patients with advanced actinic keratosis. It counts as in vivo, human. As to the method: A person was suffering from an advanced actinic keratosis since more than 3 years. In this time they received different types of topical treatment, such as Solaraze (3% Diclofenac) or Aldara (Imiquimod). Thereafter they were treated with 50 mg of Fosfluridine Tidoxil (1 capsule). The patient received 3 cycles each cycle consisting of a once daily oral administration over 7 days followed by a treatment free week (two weeks per cycle).
A patient was diagnosed to have an actinic keratosis 15 years before and was now in an advanced stage. In the years before taking Fosfluridine Tidoxil they were, in essence, treated with Solaraze. Since the therapeutic benefit appears to be limited they then received 100 mg of oral Fosfluridine Tidoxil (2 capsules of 50 mg) over 3 cycles (as mentioned above).
A person with a first diagnosis of Actinic keratosis 1.6 years before use of Fosfluridine Tidoxil was treated topically, however, eventually without therapeutic benefit. […] They then received 100 mg of oral Fosfluridine Tidoxil (2 capsules of 50 mg) over 3 cycles (as described above). […] This patient was not treated over the next four months with any topical.
A patient suffered from Actinic keratosis for more than 7 years and was now in an advanced stage. […] […], then, received 100 mg of oral Fosfluridine Tidoxil (2 capsules of 50 mg) over 3 cycles (as de-scribed above). […] In the next 2 month this patient was not treated with any topical.

For data set [7] the following is noted: oral administration, mice.
For data set [8] the following is noted: mice, up to highest single p.o. dose tested of 3.8 g/kg.
Data set [9] deals with SCLC xenograft. The note with it: mice, dose-dependent, maximum inhibition.
For data set [10], the system named is CFU-E and CFU-GM. The note with it: doses manifold higher than highly toxic doses of FUrd.
The conditions of data set [11]: in vivo. The source says:
One of the drawbacks of using intravenously administered 5-Fluorouracil is bone marrow suppression, expressed clinically by increased susceptibility to infections and fatigue.

The structures appear in SMILES notation. Entries after “also recorded” stand apart in the source; their conditions may differ. Where two headings read alike, the source gives them in different places.

Regarding `O=c1[nH]cc(F)c(=O)[nH]1` [Example 5-FU, 5-Fluorouracil], the “drug eliminated within the first hour” value in data set [1] is “Over 90%”.

Regarding `CCCCCCCCCCCCSCC(COP(=O)([O-])OCC1OC(n2cc(F)c(=O)[nH]c2=O)C(O)C1O)OCCCCCCCCCC.[Na+]` (stereo not shown) [FT, (5-fluorouridine)-5′-phosphoric acid (3-dodecylmercapto-2-decyloxy)propylester, Na-salt], the bone marrow toxicity result in data set [2] is on record as “did not result in bone marrow toxicity”. Moreover, in data set [3], the “plasma concentrations of 5-FU and 5-FUrd after administration of FT” value is given as “negligible”. The plasma half-life in data set [3] (oral administration) was more than 20 h; in data set [5], 8 to 10 h; in data set [7], 4 to 5 h. Further, in [4], the “effectiveness in proliferating compared to non-proliferating keratinocytes” value is on record as “far more effective in proliferating primary human keratinocytes”. Further, the “reduction of lesion count” value in data set [6] (50 mg oral once daily, 3 cycles (7 days on, 7 days off), plus one month of observation) is 34%. The “histological stage of lesions” value in data set [6] (50 mg oral once daily, 3 cycles, plus one month of observation, most severe area) is reported as “reduced from stage 3 to stage 1”; in data set [6] (100 mg oral once daily, 3 cycles, plus one month of observation, listed as Fosfluridine Tidoxil), “decreased from class 2 to class 1; also recorded: reduced from class 3 to class 2; also recorded: reduced from 3 to 1”. In data set [6] (after 100 mg oral, 3 cycles, next 2-4 months without topical, listed as Fosfluridine Tidoxil), the “outcome in follow-up without any topical treatment” value was “all actinic keratoses have disappeared; also recorded: all actinic lesions have disappeared”. The “mortality in acute tolerability study” value in [8] was “no animal died”. Besides, the “inhibition of SCLC xenograft tumor growth” value in data set [9] is “up to 82%”. In addition, the “suppression of in vitro colony formation of CFU-E and CFU-GM” value in data set [10] is recorded as “did not suppress”. The “distribution to the bone marrow” value in data set [11] is reported as “not distributed to the bone marrow”.

Take `O=c1[nH]c(=O)n([C@@H]2O[C@H](CO)[C@@H](O)[C@H]2O)cc1F` [Example 5-FUrd, 5-Fluorouridine, reference compound]: the bone marrow toxicity entry in [2] is listed as “dose-dependently suppressed bone marrow cells”.
